Reference: patent US20110182982A1, “LIPOSOME TREATMENT OF VIRAL INFECTIONS” (University of Oxford, priority 2006, published 2011)

Assays:
Test in all cases: p24 secretion of HIV-1-infected PBMCs
Assay type in all cases: cell-based
Settings in all cases: for % p24 secretion Week 1-rb / % p24 secretion Week 2-rb / % p24 secretion Week 3-rb / % p24 secretion Week 4-rb: treatment removed 2 weeks
HIV-1 isolate: UG92021 = test system: HIV-1 isolate: UG92021
Protocol: (§1) Clearance of HIV-1 primary isolates from infected human cells by NB-DNJ was assessed using phytohemagglutinin (PHA)-activated peripheral blood mononuclear cells (PBMCs) as indicator cells and the determination of p24 antigen production as the end point.
(§2) PBMCs from four normal (uninfected) donors were isolated, pooled, and stimulated with PHA (5 μg/ml) for 48 h followed by PHA plus interleukin-2 (40 U/ml) for 72 h in RPMI 1640 medium containing 10% heat-inactivated fetal bovine serum (FBS), 100 U of penicillin per ml, 100 μg of streptomycin per ml, and 2 mM L-glutamine. All experiments were performed in 96-well microtiter plates. To infect cells, 100 μl of PHA-activated PBMCs (5×10^5/ml) was added to each well, after which an equal volume containing 100 50% tissue culture infective doses (TCID50) of primary isolate stock was added. After an overnight incubation, the cells were washed three times with tissue culture medium, and finally re-suspended in medium containing the appropriate liposome treatment or free NB-DNJ. On day 7, approximately 10-30% of the culture volume containing secreted HIV-1 virions was used to infect naïve PBMCs for a second round of infection and treatment (volume transferred was calculated to be the volume necessary for the untreated control of that isolate to infect naïve cells at a TCID50=100). Rounds of treatment and infection of naïve cells were continued over four weeks, and at every time point cellular supernatant containing secreted virions was isolated and used in capture ELISAs to determine p24 concentration (measure of secretion). Additionally, supernatant isolated at each time point throughout treatment was used to infect naïve PBMCs (TCID50=100) for two weeks with no further treatment, which allowed for the observation of a rebound in viral activity.
(§3) PBMCs infected with 8 primary isolates (listed in Table 3) were incubated in the presence of free NB-DNJ (concentrations ranging 0-1 mM) or liposome-encapsulated NB-DNJ (0-3.75 μM, final lipid concentration of 50 μM).

HIV-1 isolate: 89.6 = test system: HIV-1 isolate: 89.6
Protocol: as §1, §2, §3

HIV-1 isolate: JR-FL = test system: HIV-1 isolate: JR-FL
Protocol: as §1, §2, §3

HIV-1 isolate: 97USNG30 = test system: HIV-1 isolate: 97USNG30
Protocol: as §1, §2, §3

[1] = 1 mM free in medium, first week
[2] = Human immunodeficiency virus 1, PBMC, free, three rounds of treatment

## CCCCN1C[C@H](O)[C@@H](O)[C@H](O)[C@H]1CO [NB-DNJ, N-butyl-1,5-dideoxy-1,5-imino-D-glucitol]
HIV-1 isolate: UG92021; NB-DNJ 250 uM
  % p24 secretion Week 1: 90%
  % p24 secretion Week 2: 83%
  % p24 secretion Week 3: 88%
  % p24 secretion Week 4: 77%
  % p24 secretion Week 1-rb: 110%
  % p24 secretion Week 2-rb: 101%
  % p24 secretion Week 3-rb: 91%
  % p24 secretion Week 4-rb: 85%
HIV-1 isolate: UG92021; NB-DNJ 500 uM
  % p24 secretion Week 1: 85%
  % p24 secretion Week 2: 56%
  % p24 secretion Week 3: 23%
  % p24 secretion Week 4: 8%
  % p24 secretion Week 1-rb: 98%
  % p24 secretion Week 2-rb: 62%
  % p24 secretion Week 3-rb: 27%
  % p24 secretion Week 4-rb: 19%
HIV-1 isolate: UG92021; NB-DNJ 1000 uM
  % p24 secretion Week 1: 61%
  % p24 secretion Week 2: 21%
  % p24 secretion Week 3: 5%
  % p24 secretion Week 4: 0%
  % p24 secretion Week 1-rb: 72%
  % p24 secretion Week 2-rb: 19%
  % p24 secretion Week 3-rb: 3%
  % p24 secretion Week 4-rb: 0%
HIV-1 isolate: 89.6; [1]
  reduction in viral secretion: 75%
HIV-1 isolate: 89.6; [2]
  IC50: 250 µM
  IC90: 375 µM
HIV-1 isolate: 89.6; NB-DNJ 250 uM
  % p24 secretion Week 1: 98%
  % p24 secretion Week 2: 79%
  % p24 secretion Week 3: 54%
  % p24 secretion Week 4: 59%
  % p24 secretion Week 1-rb: 81%
  % p24 secretion Week 2-rb: 70%
  % p24 secretion Week 3-rb: 73%
  % p24 secretion Week 4-rb: 66%
HIV-1 isolate: 89.6; NB-DNJ 500 uM
  % p24 secretion Week 1: 36%
  % p24 secretion Week 2: 16%
  % p24 secretion Week 3: 2%
  % p24 secretion Week 4: 0%
  % p24 secretion Week 1-rb: 35%
  % p24 secretion Week 2-rb: 8%
  % p24 secretion Week 3-rb: 0%
  % p24 secretion Week 4-rb: 0%
HIV-1 isolate: 89.6; NB-DNJ 1000 uM
  % p24 secretion Week 1: 25%
  % p24 secretion Week 2: 1%
  % p24 secretion Week 3: 1%
  % p24 secretion Week 4: 0%
  % p24 secretion Week 1-rb: 21%
  % p24 secretion Week 2-rb: 0%
  % p24 secretion Week 3-rb: 0%
  % p24 secretion Week 4-rb: 0%
HIV-1 isolate: JR-FL; [1]
  reduction in viral secretion: 50%
HIV-1 isolate: JR-FL; NB-DNJ 250 uM
  % p24 secretion Week 1: 107%
  % p24 secretion Week 2: 105%
  % p24 secretion Week 3: 89%
  % p24 secretion Week 4: 93%
  % p24 secretion Week 1-rb: 104%
  % p24 secretion Week 2-rb: 101%
  % p24 secretion Week 3-rb: 97%
  % p24 secretion Week 4-rb: 91%
HIV-1 isolate: JR-FL; NB-DNJ 500 uM
  % p24 secretion Week 1: 64%
  % p24 secretion Week 2: 24%
  % p24 secretion Week 3: 5%
  % p24 secretion Week 4: 0%
  % p24 secretion Week 1-rb: 75%
  % p24 secretion Week 2-rb: 9%
  % p24 secretion Week 3-rb: 4%
  % p24 secretion Week 4-rb: 2%
HIV-1 isolate: JR-FL; NB-DNJ 1000 uM
  % p24 secretion Week 1: 44%
  % p24 secretion Week 2: 9%
  % p24 secretion Week 3: 1%
  % p24 secretion Week 4: 0%
  % p24 secretion Week 1-rb: 56%
  % p24 secretion Week 2-rb: 5%
  % p24 secretion Week 3-rb: 1%
  % p24 secretion Week 4-rb: 0%
HIV-1 isolate: 97USNG30; NB-DNJ 250 uM
  % p24 secretion Week 1: 96%
  % p24 secretion Week 2: 102%
  % p24 secretion Week 3: 100%
  % p24 secretion Week 4: 95%
  % p24 secretion Week 1-rb: 112%
  % p24 secretion Week 2-rb: 109%
  % p24 secretion Week 3-rb: 97%
  % p24 secretion Week 4-rb: 101%
HIV-1 isolate: 97USNG30; NB-DNJ 500 uM
  % p24 secretion Week 1: 74%
  % p24 secretion Week 2: 45%
  % p24 secretion Week 3: 8%
  % p24 secretion Week 4: 3%
  % p24 secretion Week 1-rb: 82%
  % p24 secretion Week 2-rb: 19%
  % p24 secretion Week 3-rb: 7%
  % p24 secretion Week 4-rb: 1%
HIV-1 isolate: 97USNG30; NB-DNJ 1000 uM
  % p24 secretion Week 1: 46%
  % p24 secretion Week 2: 9%
  % p24 secretion Week 3: 0%
  % p24 secretion Week 4: 0%
  % p24 secretion Week 1-rb: 53%
  % p24 secretion Week 2-rb: 3%
  % p24 secretion Week 3-rb: 0%
  % p24 secretion Week 4-rb: 0%
